Experimental data: patent US10752647B2, “N-phosphonoxymethyl prodrugs of hydroxyalkyl thiadiazole derivatives” (DAIICHI SANKYO COMPANY, LIMITED, priority 2017, dated 2020)

Key:
Assay type in all cases: in vivo
[1] = Conversion efficiency / PK profile after IV dose in rats (Compounds No. 1 and No. 2); settings: Rat, plasma, parent compound IV 12.5 mg/kg; read-out: Parent compound AUCinf
Description: (§1) Method of Testing Conversion Efficiency Determination of conversion efficiency of Compound No. 1 and Compound No. 2 was conducted in rodents (mice and rats) and non-rodents (monkeys and dogs). Animals were divided in two groups with two animals in each group. One group received an intravenous (IV) dose of prodrug and the other group received an IV dose of parent compound. The dose of prodrug was taken as molar equivalent dose of parent compound. Serial blood sampling was carried out at 0.083, 0.33, 1, 2, 4, 8 and 24 h post IV dose from both the animal groups. Blood samples were centrifuged to harvest plasma. Plasma samples were stored at −80° C. until analysis. Plasma samples of prodrug administered animals were simultaneously analyzed for both analytes (prodrug and parent compound) using LC-MS/MS. Area under the curve (AUC) of plasma concentrations versus time profiles were calculated in WinNonlin software and percentage conversion efficiency was determined using the formula: Percentage conversion efficiency=(AUCiv of parent compound (from prodrug administered samples)×100/(AUCiv of parent compound (from parent compound administered samples). PK profile of Compounds No. 1 and No. 2 in rats, dogs and monkeys are depicted in Table 5 and 6, respectively (also shown in FIGS. 1 and 2).

[2] = Conversion efficiency / PK profile after IV dose in dogs; settings: Dog, plasma, parent compound IV 1 mg/kg; read-out: Parent compound AUCinf
Description: as §1

[3] = Conversion efficiency / PK profile after IV dose in monkeys; settings: Monkey, plasma, parent compound IV 1 mg/kg; read-out: Parent compound AUCinf
Description: as §1

AUC(0-inf) [1]: 17700 ng·h/mL | AUC(0-inf) [2]: 29400 ng·h/mL | AUC(0-inf) [3]: 6250 ng·h/mL
Compound: CCc1[nH]c(C(=O)N[C@@H]2CCN(c3nnc(C(C)(C)O)s3)C[C@@H]2OC)nc1Cl [Parent compound of Compound No. 1, 4-chloro-5-ethyl-N-{(3S,4R)-1-[5-(1-hydroxy-1-methylethyl)-1,3,4-thiadiazol-2-yl]-3-methoxypiperidin-4-yl}-1H-imidazole-2-carboxamide]
